Data as given in paper PMC9284842, “Allosteric activation of the metabolic enzyme GPD1 inhibits bladder cancer growth via the lysoPC-PAFR-TRPV2 axis” (Journal of Hematology & Oncology, 2022).

Tests used:
[1] = target: T1, GPD1 (Homo sapiens, UniProt P21695); experiment: microscale thermophoresis (Monolith NT.[…], Hill fit); type: binding
T1 construct: purchased recombinant protein (Proteintech Ag4471); Red-NHS dye labelled for MST; source of enzyme in activity assay not restated
T1 sequence (P21695 1-349): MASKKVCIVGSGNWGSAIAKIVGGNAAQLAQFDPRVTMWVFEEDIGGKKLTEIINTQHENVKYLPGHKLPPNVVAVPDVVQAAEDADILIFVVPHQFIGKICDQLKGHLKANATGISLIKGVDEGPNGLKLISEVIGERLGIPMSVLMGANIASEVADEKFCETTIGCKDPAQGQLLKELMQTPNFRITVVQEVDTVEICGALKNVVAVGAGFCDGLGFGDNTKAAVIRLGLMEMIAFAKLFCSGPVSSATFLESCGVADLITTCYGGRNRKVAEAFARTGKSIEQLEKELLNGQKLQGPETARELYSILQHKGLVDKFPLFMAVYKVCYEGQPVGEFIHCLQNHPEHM

[2] = target: T1, GPD1; experiment: NADH absorbance at […] nm, initial rate of DHAP reduction; type: biochemical; conditions: 200 uM NADH, 8 mM DHAP, 1 uM GPD1, 20 mM TEA, 0.1 mg/mL BSA, I = 0.12 (NaCl); activator, proposed allosteric

`COc1cc(O)c2c(c1)oc(=O)c1c3cc(O)c(O)cc3oc21` [wedelolactone] was tested, and the Kd [1] was 505 nM and the activation [2] was “wedelolactone (WE) from Bioactive Compound Library Plus in MedChemExpress LLC had substantial activity”.
